According to PubChem BioAssay (NCI):
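Compound exposure: 48 hours, 5 concentrations, 96-well plates. Abbreviation: GI50, concentration required for 50% inhibition of growth. The concentration for full growth arrest is given as TGI.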

How the values were obtained:
Assay in all cases: inhibition of tumour cell growth, NCI panel, 48 h
SF-295 CNS = tested on: SF-295 CNS
SK-MEL-2 melanoma = tested on: SK-MEL-2 melanoma
OVCAR-3 ovarian = tested on: OVCAR-3 ovarian
SNB-75 CNS = tested on: SNB-75 CNS
SK-OV-3 ovarian = tested on: SK-OV-3 ovarian
M14 melanoma = tested on: M14 melanoma
OVCAR-4 ovarian = tested on: OVCAR-4 ovarian
SW-620 colon = tested on: SW-620 colon
SK-MEL-5 melanoma = tested on: SK-MEL-5 melanoma
SNB-19 CNS = tested on: SNB-19 CNS

Structure (SMILES)	GI50 (SF-295 CNS) [µM]	TGI (SF-295 CNS) [µM]	GI50 (SK-MEL-2 melanoma) [µM]	TGI (SK-MEL-2 melanoma) [µM]	GI50 (OVCAR-3 ovarian) [µM]	TGI (OVCAR-3 ovarian) [µM]	GI50 (SNB-75 CNS) [µM]	TGI (SNB-75 CNS) [µM]	GI50 (SK-OV-3 ovarian) [µM]	TGI (SK-OV-3 ovarian) [µM]	TGI (M14 melanoma) [µM]	TGI (OVCAR-4 ovarian) [µM]	TGI (SW-620 colon) [µM]	TGI (SK-MEL-5 melanoma) [µM]	TGI (SNB-19 CNS) [µM]	GI50 (M14 melanoma) [µM]
Fc1ccc2[nH]cc(-c3nc(-c4c[nH]c5ccncc45)cs3)c2c1	1.68	3.1	1.91	3.75	1.8	3.3	1.22	2.62	1.65	3.22	–	–	–	–	–	–
COc1ccc(N2CN(C)CSC2=S)cc1	–	86.2	–	> 100	–	24.4	–	> 100	–	66.8	> 100	> 100	> 100	> 100	> 100	–
C/C(=N/NC(=S)N(C)C)c1ccccc1O	–	> 100	–	> 100	–	> 26.3	–	82.9	–	> 100	23.4	> 85	> 100	> 49.8	> 100	–
COc1ccc(C(=O)c2c(-c3ccccc3NC(=O)C(F)(F)F)[nH]c3ccccc23)cc1	–	25.5	–	14.9	–	8.67	–	7.89	–	32.7	32.6	19.2	16.7	22	21.6	–
COc1cc(NS(C)(=O)=O)ccc1NCc1cnc2ccc3[nH]cccc3c12	–	53.4	–	39.4	–	53.2	–	39.3	–	48	31.4	65.7	> 92	25.2	> 89.1	–
Cn1c(=O)c2c(nc3n2CCC(=O)N3CCCCl)n(C)c1=O	–	> 100	–	> 100	–	> 100	–	> 100	–	> 100	> 100	> 100	> 100	> 100	> 100	–
N=S(=O)(c1ccccc1)c1ccccc1	–	> 100	–	> 100	–	> 100	–	> 100	–	> 100	> 100	> 100	> 100	> 100	> 100	–
COc1cc(S(=O)(=O)Nc2ccc(-c3csc(N4C(=O)C(Cl)C4c4cccc(Oc5ccccc5)c4)n3)cc2)ccc1Cl (configuration not stated)	–	> 100	–	76.7	–	> 100	–	45.8	–	> 100	52.4	18.1	> 100	> 100	> 100	–
Clc1ccc2nc3n[nH]c(Cl)c3nc2c1	–	> 100	–	> 100	–	> 100	–	> 100	–	> 100	> 100	> 100	> 100	97.8	> 100	–
O=S(c1ccccc1)C1CC2CC3(CCC21O)OCCO3 (configuration not stated)	–	> 100	–	> 100	–	> 100	–	> 100	–	> 100	> 100	> 100	> 100	> 100	> 100	–
Brc1c2nc3ccccc3nc2n2ccc3ccccc3c12	–	–	–	> 100	–	> 100	–	> 100	–	> 100	> 100	> 100	> 100	> 100	> 100	–
CCNC(=O)NNc1ncnc2c1c(-c1ccc(Cl)cc1)cn2-c1ccc(C)cc1	–	30.5	–	42.2	–	33.6	–	38.9	–	73.7	32.3	40.8	45	28	34.5	–
CCOC(=O)C1(C#N)C2(C#N)C(N)=NC(ON=C(C)C)(ON=C(C)C)C12C#N (configuration not stated)	–	> 100	–	> 100	–	–	–	–	–	> 100	> 100	> 100	> 100	> 100	> 100	–
C[N+](C)=c1ccc2nc3c(ccc4ccccc43)oc-2c1	–	29	–	36.6	–	14	–	32.5	–	33.5	24.7	26.3	10.5	27.5	31.6	–
CCCCCCCCCC(O)CC(=O)c1c(O)cccc1O (configuration not stated)	–	39.1	–	35.7	–	41.9	–	34.9	–	41.3	44.2	35.2	> 100	38	73	–
Cc1nc2ccccc2c(=O)n1NC(=O)c1ccccc1[N+](=O)[O-]	–	> 100	–	–	–	> 100	–	> 100	–	> 100	> 100	> 100	> 100	> 100	> 100	–
Nc1nc(Nc2ccc(Cl)cc2)sc1C(=O)c1c[nH]c2ccccc12	–	–	–	28.4	–	36	–	24.3	–	46.4	23.5	51.7	> 100	24.3	38	–
N#CNC(=NCc1ccccc1)NCCc1c[nH]c2ccccc12	–	> 100	–	–	–	> 100	–	> 100	–	> 100	> 100	> 100	> 100	83.3	> 100	–
CSc1c2c(C)n[nH]c2nn1-c1ccccc1	–	–	–	> 100	–	> 100	–	> 100	–	> 100	> 100	> 100	> 100	> 100	> 100	–
C/C=C/c1cc2c(c(=O)o1)C(=O)[C@@H](O)[C@H](C)O2	–	41.6	–	34.2	–	32.8	–	39	–	> 84.4	–	29.7	22.9	29.4	46.1	–
N/C(=N\NC(=O)c1nc2ccccc2s1)c1ccccn1	–	> 100	–	> 100	–	> 100	–	> 45.1	–	29.5	23.6	–	> 100	21.3	> 100	–
C=C1C2C[C@@H]3OC4CC5O[C@]6(CC5OC4C(C)C3OC(=O)CC3CC[C@@H]4OC5C7OC8C[C@](CCC9CC(=C)[C@H](CCC(C[C@H]1C)O2)O9)(OC7C4O3)O[C@@H]85)C[C@@H]1O[C@@]2(CC(C)[C@@H]3OC(CC(=O)CCO)C(O)C[C@@H]3O2)CC(C)[C@@H]1O6 (some centres not stated)	–	< 0.001	–	< 0.001	–	< 0.001	–	–	–	0.905	0.17	< 0.001	1.32	0.00259	0.816	–
C=CCOC(=O)c1c(C)n([O-])c2cc(Cl)c(Cl)cc2[n+]1=O	–	86.9	–	39.4	–	40.8	–	–	–	59.8	38.8	19.1	–	36.8	> 100	–

Structure (SMILES)	GI50 (SF-295 CNS) [µM]	TGI (SF-295 CNS) [µM]	GI50 (SK-MEL-2 melanoma) [µM]	TGI (SK-MEL-2 melanoma) [µM]	GI50 (OVCAR-3 ovarian) [µM]	TGI (OVCAR-3 ovarian) [µM]	GI50 (SNB-75 CNS) [µM]	TGI (SNB-75 CNS) [µM]	GI50 (SK-OV-3 ovarian) [µM]	TGI (SK-OV-3 ovarian) [µM]	TGI (M14 melanoma) [µM]	TGI (OVCAR-4 ovarian) [µM]	TGI (SW-620 colon) [µM]	TGI (SK-MEL-5 melanoma) [µM]	TGI (SNB-19 CNS) [µM]	GI50 (M14 melanoma) [µM]
O=C(CNc1nccs1)Nn1cnc2ccc(S(=O)(=O)Nc3nccs3)cc2c1=O	–	> 100	–	> 100	–	> 100	–	> 100	–	> 100	> 100	> 100	> 100	–	> 100	–
CC1(C)Oc2ccc3c(=O)cc(-c4cccs4)oc3c2C1C(=O)O (configuration not stated)	–	> 100	–	> 100	–	> 100	–	–	–	> 100	> 100	–	–	> 100	–	–
O=C(O)CN1CCCC(Cc2c[nH]c3ccccc23)C1 (configuration not stated)	–	> 100	–	> 100	–	> 100	–	> 100	–	> 100	> 100	> 100	> 100	> 100	–	–
CNC(=O)c1cc2nc3ccccc3c(=O)n2c2ccccc12	–	> 10	–	> 10	–	> 10	–	–	–	> 10	> 10	> 10	> 10	> 10	> 10	–
CC(=O)NNC(=S)/N=C\c1c(O)c2ccccc2oc1=O	–	> 100	–	> 100	–	> 100	–	> 100	–	–	> 100	> 100	> 100	> 100	> 100	–
Cc1c(OCCCOc2ccc3c(=O)cc(-c4ccccc4)oc3c2C)ccc2c(=O)cc(-c3ccccc3)oc12	–	> 100	–	> 100	–	> 100	–	–	–	> 100	> 100	–	> 100	> 100	> 100	–
N#C/C=c1/c2ccccc2n2nc3ccccc3c12	–	> 100	–	> 100	–	> 100	–	–	–	22.9	> 100	31.5	> 100	> 100	40	–
C[N+](C)(C)CCOC(=O)/C=C/c1cnc[nH]1	–	> 500	–	> 500	–	> 500	–	> 500	–	> 500	–	> 500	> 500	> 500	> 500	–
COc1ccc(OC)c(NC2=NCCO2)c1	–	> 100	–	> 100	–	> 100	–	> 100	–	–	> 100	> 100	28.2	> 100	22.7	–
Cc1nc(N)sc1C(=O)Nc1ncn[nH]1	–	> 100	–	> 100	–	> 100	–	–	–	> 100	> 100	> 100	> 100	> 100	> 100	–
CCn1c(-c2ccc(OC)cc2)nc2c1C(=O)c1ccccc1C2=O	–	> 100	–	–	–	> 100	–	> 100	–	> 100	> 100	> 100	> 100	> 100	> 100	–
Cn1cc(-c2nc(-c3c[nH]c4ccncc34)cs2)c2ccccc21	1.77	3.32	1.8	3.51	1.69	3.09	1.29	2.61	1.59	3.23	3.4	–	–	–	–	1.74
COc1cccc2c1C(=O)c1c(O)c3c(c(O)c1C2=O)C[C@@](O)(C(=O)CN1CCOCC1)C[C@@H]3OC1CC(N)C(O)C(C)O1 (some centres not stated)	–	39.3	–	22.7	10.6	57.4	–	22.4	–	> 100	–	69.6	> 78.7	15.7	> 100	–
O=C(OCC1CCCN2CCCCC12)c1cccnc1 (configuration not stated)	–	> 100	–	> 100	–	–	–	> 100	–	> 100	–	> 100	> 100	> 100	> 100	–
COc1cc(N)c2[nH]c3c(C)ccc(C)c3c2c1	–	> 100	–	> 100	–	> 100	–	> 100	–	–	> 100	> 100	> 100	> 100	> 100	–
Oc1cc(Cl)cc2cc(Cl)cnc12	–	88.7	–	–	–	5.43	–	94	–	> 100	> 100	> 100	> 100	53.3	> 100	–
Cc1ccc2n(c1)cc(-c1ccc(/C=N/NC(=N)N/N=C/c3ccc(-c4cn5cc(C)ccc5[n+]4C)cc3)cc1)[n+]2C	–	> 100	–	–	–	–	–	35.2	–	> 100	> 100	> 100	> 100	> 100	> 100	–
NC(=O)COc1c(Br)cc(Br)cc1Br	–	> 100	–	> 100	–	> 100	–	> 100	–	> 100	> 100	> 100	–	> 100	> 100	–
C=C1C(=O)[C@]23C[C@H]1C[C@@H](O)[C@H]2[C@]1(COC3=O)[C@@H](OC(C)=O)CC[C@@](C)(COC(C)=O)[C@H]1C=O	–	> 50	–	> 50	–	> 50	–	> 50	–	–	–	> 50	18.7	> 50	> 50	–
COC(=O)c1ccccc1NC(=S)NN(C)C	–	> 100	–	> 100	–	> 100	–	> 100	–	> 100	> 100	> 100	> 100	–	> 100	–
CCCc1n[nH]c(=O)n1N1C(=O)C=CC1=O	–	> 100	–	> 100	–	> 100	–	–	–	> 100	> 100	> 100	–	> 100	–	–
c1ccc2[nH]c3c(N=NC4=NCCN4)c4ccccc4c-3nc2c1	–	12.2	–	–	–	30.2	–	16.4	–	–	20.4	> 100	13.6	15.9	68.9	–
CCOC(=O)CCC(NC(=O)c1ccc(Nc2nc3cc(C(F)(F)F)ccc3nc2C(=O)OCC)cc1)C(=O)OCC (configuration not stated)	–	19.3	–	28.8	–	26.7	–	–	–	–	16.9	–	81.6	93	22.6	–
